Measured values taken from article PMC8511024, “In silico and multi-spectroscopic analyses on the interaction of 5-amino-8-hydroxyquinoline and bovine serum albumin as a potential anticancer agent” (Scientific Reports, 2021).

Tests used:
[1] = target: T1, bovine serum albumin (BSA) (Bos taurus, UniProt P02769); assay: Circular dichroism spectroscopy of BSA secondary structure; details: BSA 4 µM, 310 K, without 5A8HQ 66.17%
T1 construct: bovine serum albumin (BSA), a representative of serum protein; purchased Sigma-Aldrich Co. LLC
T1 sequence (P02769 25-607): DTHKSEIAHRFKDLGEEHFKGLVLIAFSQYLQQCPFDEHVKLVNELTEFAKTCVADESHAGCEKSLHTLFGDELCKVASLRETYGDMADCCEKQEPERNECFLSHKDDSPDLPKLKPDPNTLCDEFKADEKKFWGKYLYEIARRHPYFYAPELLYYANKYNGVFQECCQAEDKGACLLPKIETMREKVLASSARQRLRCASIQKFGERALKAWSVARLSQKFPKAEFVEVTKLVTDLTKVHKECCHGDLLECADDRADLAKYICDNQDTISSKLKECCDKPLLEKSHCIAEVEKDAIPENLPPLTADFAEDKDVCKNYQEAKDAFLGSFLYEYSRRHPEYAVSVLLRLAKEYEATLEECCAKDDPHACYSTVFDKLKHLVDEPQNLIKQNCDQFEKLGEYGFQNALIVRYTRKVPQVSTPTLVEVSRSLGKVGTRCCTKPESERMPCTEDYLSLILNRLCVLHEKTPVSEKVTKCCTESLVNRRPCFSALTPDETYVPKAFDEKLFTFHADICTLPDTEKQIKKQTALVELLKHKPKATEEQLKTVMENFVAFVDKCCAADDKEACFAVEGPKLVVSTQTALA
Source text: Structural alteration of the BSA when interacting with 5A8HQ was further elucidated by a CD spectroscopy, which is a useful technique for analyzing the secondary structure of macromolecules. BSA structure is dominantly composed of α-helix (~ 67%), represented by two prominent negative bands at 208 (π–π* transition) and 222 (n–π* transition) nm, and a positive band at 192 nm (π–π* transition)[54]. […] This finding is in well agreement with other observations, especially thermodynamic parameters, molecular docking, and molecular dynamics simulations, which implied that BSA tends to transform its native conformation for ground-state complexation with 5A8HQ. Hydrogen bonding and electrostatic networks of the complex might reallocate hydrogen bonding of α-helix structure as indicated by a slight decrease in CD spectral bands.
CD measurement was performed to determine a secondary conformational alteration of BSA under 5A8HQ exposure using a Jasco J-815 spectropolarimeter (JASCO International Co. Ltd., Tokyo, Japan). BSA (4 µM) was incubated with 5A8HQ (5 and 50 µM) in a 1 mm path length cuvette at 310 K under constantly flushed with nitrogen. The spectra were recorded in a range of 200–260 nm at an interval of 1 nm with a 60 nm/min scanning rate.

[2] = target: T1, bovine serum albumin (BSA); assay: Site probe competitive (site marker displacement) analysis; assay type: binding; details: 310 K; for Kd: Binding constant KA, BSA 4 µM
Source text: Serum albumin can bind and transport various molecules since its structure assembles many binding pockets. Site I and site II are well-defined binding pockets located in hydrophobic regions of subdomains IIA and IIIA, respectively, which primarily bind aromatic and heterocyclic compounds. Site III is found on the hydrophilic region of subdomain IB to serve as a binding pocket for numerous compounds e.g., bilirubin, hemin, and sulfonamide derivatives. In addition, seven binding sites for fatty acids are discovered on subdomains IB, IIIA, and IIIB, and at the interface between subdomains. Herein, site-probe displacement study was employed to determine the preferred binding site on BSA of 5A8HQ using warfarin, ibuprofen, and digitoxin as competitive probes for sites I, II, and III, respectively. Binding constant of 5A8HQ to BSA was determined during equilibration with each site marker (Table 4).
BSA (4 µM) was equilibrated with various concentrations of 5A8HQ (0, 5, 10, 30, 50, 70, 90, 110, 130, 150, and 170 µM) for 10 min at the different temperatures (290, 300, and 310 K). Later, fluorescence spectra in a range of 285–450 nm were measured with 280 nm excitation using a temperature-controlled QuantaMaster™ 40 spectrofluorometer (Photon Technology International, Inc., Ontario, Canada). Site marker displacement analyses were achieved as the abovementioned, but an equimolar concentration of […] was added to BSA prior challenging with various 5A8HQ concentrations at physiological temperature (310 K). Inner filter effect (IFE) becaused by the excitation and emission beam attenuations by sample might produce nonlinearity artifact on the measured fluorescent signal, so IFE was routinely eradicated by the following equation[55].9 Fcor=Fobs×e^(A^ex-A^em)/2 where Fobs and Fcor are the measured and corrected fluorescence intensities, respectively. A^ex and A^em are the absorbance values at excitation and emission wavelengths being measured. The IFE corrected fluorescence signals were served for estimations of all pertinent parameters, such as quenching constant, binding constant, and thermodynamics parameters, if not otherwise stated.

[3] = target: T1, bovine serum albumin (BSA); assay: Fluorescence quenching of BSA (Stern–Volmer, Hill and Van't Hoff analyses); assay type: binding; details: for Stern–Volmer constant Ksv: BSA 4 µM, 5A8HQ 0–170 µM; for Quenching rate constant kq: lifetime of 1 × 10^−8 s assumed
Source text: Quenching of intrinsic protein fluorescence can be triggered by either static or dynamic process. In some circumstances, both processes can concurrently provoke fluorescence quenching known as a combined quenching mechanism. Static and dynamic quenching processes obey a linear model of the Stern–Volmer equation (Eq. 1), which can be approximately differentiated by scrutinizing the Stern–Volmer constant ( Ksv ) at different temperatures. Positive relationship of Ksv with temperature indicates dynamic quenching process, while negative association infers static process. Dynamic quenching occurs via collisional encountering among protein and ligand. Increasing temperature enlarges ligand motion to hit protein and quench its fluorescence at the excited state, resulting in increasing Ksv . Static quenching is contrary to the dynamic one. It is arisen by the complexation of protein and ligand, in which rising temperature tends to disfavor binding event and lessen Ksv value. Combined quenching process influences both ground-state and excited state of protein fluorescence, which usually deviates the linearity of classical Stern–Volmer plot to downward or upward curvature[42].1 F0/F=1+KsvQ=1+kqτ0Q F0 and F are the steady-state fluorescence intensities of fluorophore (BSA) in the absence and the presence of quencher (5A8HQ), respectively. Q refers to the molar concentration of quencher. Ksv is Stern–Volmer constant. kq and τ0 are biomolecular quenching rate constant and fluorescence lifetime of the fluorophore without quencher, respectively.
Fluorescence quenching and thermodynamic analyses were performed at three different temperatures including 310, 300, and 290 K to imitate physiological, ambient, and hypothermic conditions, respectively. The 5A8HQ quenched fluorescence emission of BSA in a concentration dependent manner and almost reached saturation at 5A8HQ concentration above 130 µM (Fig. 3A). The Stern–Volmer plots behaved in a positive linear trend, indicating a single process of BSA fluorescence quenching by 5A8HQ (Fig. 3B).
In addition, quenching process could be roughly verified by determining the quenching rate constant of the interaction (Eq. (1)), in which the quenching rate constant at 2 × 10^10 M^−1 s^−1 is usually employed as a maximum cutoff for diffusion collision quenching of various quenchers. The fluorescence lifetime of excited state can be measured using a lifetime spectrofluorometer. However, in case of inaccessible to such instrument like this study, a lifetime of 1 × 10^−8 s is generally assumed for the calculation of quenching rate constant. Accordingly, the quenching rate constant of BSA‒5A8HQ interaction at each temperature was approximated to be 10^12 M^−1 s^−1 (Table 2), which was 100 times higher than that of the typical collisional quenching process (2 × 10^10 M^−1 s^−1). […] Thereby, the binding constants of complexation were elucidated using Hill’s plot.
Various non-covalent interactions play an important role in the binding of ligand to protein including hydrogen bonding, van der Waals force, electrostatic, and hydrophobic interactions. Therefore, complex formation between BSA and 5A8HQ was further explored to determine principal interaction forces and binding affinity. Nonlinear Hill’s equation (Eq. (2)) was applied on the fluorescence dataset of BSA–5A8HQ complex to obtain binding constant ( KA ) and Hill coefficient constant ( n ), which fundamentally infer affinity and cooperativity of the binding, respectively (Fig. 4A).
2 F0-F/F0=KA[Q]^n/1+KA[Q]^n F0 , F , and Q stand for the same annotations as the aforementioned in Eq. (1). Hill’s equation can be transformed to linear form as an expression of Eq. (3), which is often applied in many studies.3 logF0-F/F=logKA+nlogQ KA is similar to KSV in terms of binding constant, but in different aspects of interaction behavior. KA implies a degree of affinity at static process, while KSV rather reflects dynamic behavior among protein and ligand[16]. […]

[4] = target: T1, bovine serum albumin (BSA); assay: Fluorescence resonance energy transfer (FRET) between BSA and 5A8HQ; assay type: binding
Source text: Besides microenvironmental changes around its fluorophore, quenching of BSA fluorescence may also be provoked by fluorescence resonance energy transfer (FRET) process, in which the excited Trp and/or Tyr transfer their energy to the quencher (5A8HQ) via dipole–dipole interaction. However, the FRET phenomenon is strictly dependent on the degree of overlapping between emission spectrum of fluorophore and absorption spectrum of quencher. Also, fluorophore and quencher must be in proximity (2–8 nm) to each other and their transition dipoles must align in parallel orientation. FRET is a useful method to study molecular distance among molecules that can provide guidance on whether ligand binds with protein at proximity to the Trp fluorophore. The distance ( r ) between quencher and fluorophore can be calculated by Eq. (6).6 E=1-F/F0=R06/[…] E stands for the efficiency of fluorescence resonance energy transfer. F0 and F are fluorescence intensities of BSA in the absence and presence of 5A8HQ, respectively. R0 is the Förster distance, where half of the excitation energy is transferred to the acceptor. R0 can be obtained by Eqs. (7) and (8) as follows:7 R0=0.211k^2∅DJ/n^4^1/6 8 J=∫0∞Fλελλ^4dλ/∫0∞Fλdλ where k^2 is the orientation factor of the dipoles, which can range between 0 and 4. ∅D and n denote the fluorescence quantum yield of donor without quencher and the refractive index of the medium, respectively. J is an overlapping between the donor fluorescence spectrum and the quencher absorption spectrum. Fλ and ελ mean fluorescence intensity of the donor and molar absorption coefficient of the acceptor at the λ wavelength.
R0 was determined on the assumption that ∅D and n were 0.15 and 1.336, respectively. However, Förster distance depends greatly on orientation between donor’s and acceptor’s dipoles. k^2 value of 0.667 is generally assumed for dynamic dipole orientation, where dipoles are randomly oriented because of their rotational diffusion. […] Based on these two assumptions of dipole orientation, R0 were calculated to be 2.37 and 2.50 nm, which subsequently yielded the Trp to 5A8HQ distances ( r ) at 3.01 and 3.18 nm for static and dynamic dipole orientations, respectively.

[5] = read-out: Antioxidant activity IC50; cited from earlier work
BSA = system: BSA; parameters: method as in PMID 30865872; details: cited from earlier work

Nc1ccc(O)c2ncccc12 [5A8HQ, 5-Amino-8-hydroxyquinoline]
α-helix content of BSA ([1]; 5A8HQ 5 µM): 64.96%
α-helix content of BSA ([1]; 5A8HQ 50 µM): 63.65%
Kd ([2]; with digitoxin (site III marker) 4 µM): 47.6 µM
Kd ([2]; with ibuprofen (site II marker) 4 µM): 47.8 µM
Kd ([2]; with warfarin (site I marker) 4 µM): 47.1 µM
Kd ([2]; without site marker): 83.7 µM
Number of binding site n ([2]; with digitoxin 4 µM): 1 ± 0
Number of binding site n ([2]; with ibuprofen 4 µM): 1 ± 0
Number of binding site n ([2]; with warfarin 4 µM): 1 ± 0
Number of binding site n ([2]; without site marker): 1 ± 0
Hill coefficient constant n ([3]; 290 K): 1 ± 0
Stern–Volmer constant Ksv ([3]; 290 K): 2.773 ± 0.071 × 10^4 M^−1
Quenching rate constant kq ([3]; 290 K): 2.773 ± 0.071 × 10^12 (M^−1 s^−1)
Hill coefficient constant n ([3]; 300 K): 1 ± 0
Stern–Volmer constant Ksv ([3]; 300 K): 1.303 ± 0.043 × 10^4 M^−1
Quenching rate constant kq ([3]; 300 K): 1.303 ± 0.043 × 10^12 (M^−1 s^−1)
Hill coefficient constant n ([3]; 310 K): 1 ± 0
Stern–Volmer constant Ksv ([3]; 310 K): 1.173 ± 0.032 × 10^4 M^−1
Quenching rate constant kq ([3]; 310 K): 1.173 ± 0.032 × 10^12 (M^−1 s^−1)
Kd ([3]; Binding constant KA, 290 K, Hill's equation): 40 µM
Kd ([3]; Binding constant KA, 300 K, Hill's equation): 58.6 µM
Kd ([3]; Binding constant KA, 310 K, Hill's equation): 83.7 µM
Kd ([3]; Binding constant of BSA‒5A8HQ interaction (order of magnitude), 290–310 K): 100 µM
Quenching rate constant (order of magnitude) ([3]; at each temperature, lifetime 1 × 10^−8 s assumed): ~10^12 M^−1 s^−1
Integral spectral overlap J ([4]; BSA 4 µM fluorescence, 5A8HQ 5 µM absorption): 9.55 × 10^13 M^−1 cm^−1 nm^4
Trp to 5A8HQ distance r ([4]; dynamic dipole orientation): 3.18 nm
Förster distance R0 ([4]; dynamic dipole orientation, k^2 0.667): 2.50 nm
Trp to 5A8HQ distance r ([4]; static dipole orientation): 3.01 nm
Förster distance R0 ([4]; static dipole orientation, k^2 0.475): 2.37 nm
IC50 [5]: 8.71 µM

Oc1c(I)cc(Cl)c2cccnc12 [clioquinol, 5-chloro-7-iodo-8-hydroxyquinoline]
Binding constant KA (BSA): 10^8 M^−1

Cc1c(C)c2c(c(C)c1O)CC[C@@](C)(CCC[C@H](C)CCC[C@H](C)CCCC(C)C)O2 [α-tocopherol, reference compound]
IC50 [5]: 13.5 µM
